Experimental data taken from patent US11957693B2, “Combination MCL-1 inhibitors with anti-cancer agents” (Gilead Sciences, Inc., priority 2021, dated 2024).
Entries after “also recorded” stand apart in the source; their conditions may differ.

Assays:
Assay type in all cases: cell-based
HCC1806 = test: Cell viability combination assay (Cell Titer Glo, Bliss synergy matrix), paclitaxel 4 h pretreatment then compound A; conditions: for Synergy Results (95% CI): Paclitaxel 0.000 μM
Procedure: (§1) Cells were passaged according to ATCC guidelines with 0.25% Trypsin/EDTA (1× GIBCO-25200).
(§2) Viability assessments were performed using Cell Titer Glo™ (Promega #G9241) according to manufactures microwell plate protocol and read for luminescence on Synergy Neo2 plate reader.
(§3) For synergy matrix assays, TNBC cell lines were seeded 10,000 cells per well in clear-bottomed white 96-well plates (Corning #3909) in 100 μL of recommended cell culture medium. Plates were incubated at 37° C. and 100% RH for 20 hours prior to compound exposure.
(§4) Cells were then exposed to compound A with the same checkerboard matrix using D300 dispenser and incubated for 48 hours prior to measurement of viability by Cell Titer Glo.
(§5) Calculated values were compared to experimental results generated in the sixty-three-concentration checkerboard. Synergy or antagonism scores were generated depending on whether the observed growth inhibition was greater than or less than the calculated values, respectively.
(§6) These differences were summed up across the whole checker-board (sixty-three wells) to give cumulative synergy and antagonism scores with units of μM^2% to reflect the 2D surface of the dose responses.
(§7) Data for combination assays is presented in three formats.

HCC1187 (TNBC) = test: Cell viability combination assay (Cell Titer Glo, Bliss synergy matrix), compound A + SN-38; conditions: HCC1187 1st Replicate (n = 5); SN-38 0.0000 μM; Compound A μM = c0 of row; 72 h
From the text: as §1, §5, §7

[1] = test system: panel of breast cancer cell lines; test: 72-hour in vitro proliferation combination assay, compound A with targeted agents and chemotherapies (Example 3, Table 21)
MDA-MB-468 = test: Cell viability combination assay (Cell Titer Glo, Bliss synergy matrix), paclitaxel 4 h pretreatment then compound A; conditions: Homo sapiens, MDA-MB-468, 4 h; read-out: Percent Inhibition
Procedure: as §1, §2, §3, §4, §5, §6, §7

HCC70 = test: as above; conditions: Homo sapiens, HCC70, 4 h; read-out: Percent Inhibition
Procedure: as §1, §2, §3, §4, §5, §6, §7

MCL1-BIM Dimer = test: MCL1-BIM dimer MSD assay in TNBC cell lines after paclitaxel; conditions: HCC70, MDA-MB-468, HCC1806; paclitaxel 1 μM for 4 hours, overnight incubation
Procedure: (§8) Cell lysates for MSD assays were generated using 1× Lysis Buffer (10× cell signaling CST-9803) 100× Protease Inhibitor, Phosphatase Inhibitor I, Phosphatase Inhibitor II (Meso Scale Discovery Inhibitor Pack R70AA-1, and PMSF (SIGMA cat #7626)
(§9) MCL-BAK and MCL1-BIM dimer assays and total MCL1 assay were developed by MSD Custom Assay Services and run using the MSD U-PLEX Development Pack (K15227N) and protocols' revision “2018 March rev 2”. GAPDH was determined by MSD using standard assay K151PWD. All plates were read on MSD SECTOR Imager 2400 using MSD Read Buffer T (R92TC).
(§10) For MSD assays, TNBC cell lines were seeded 25,000 cells per well in clear-bottomed white 96-well plates (Corning #3909) in recommended cell culture medium. Plates were incubated at 37° C. and 100% RH for 20 hours prior to compound exposure. […] After an additional 20 hours, samples were harvested by aspirating away supernatant and 125 μl of 1× lysis buffer was added to each well. Plates were set on ice briefly and transferred to a rocking platform at 4° C. for 20 minutes. Plates were placed on dry ice, snap frozen for 10 minutes then stored at −80° C. until tested.
(§11) MCL1 and MCL1-BAK and MCL1-BIM dimer assays were run using materials and protocols provided by MSD Custom Assay Services based on their U-Plex technology. […] 150 μl of 2× read buffer was added to each well and plates were read on an MSD SECTOR Imager 2400. […]

MCL1 = test: Total MCL1 MSD assay in TNBC cell lines after paclitaxel; conditions: HCC70, MDA-MB-468, HCC1806; paclitaxel 1 μM for 4 hours, overnight incubation
Procedure: as §8, §9, §10, §11

MCL1-BAK Dimer = test: MCL1-BAK dimer MSD assay in TNBC cell lines after paclitaxel; conditions: HCC70, MDA-MB-468, HCC1806; paclitaxel 1 μM for 4 hours, overnight incubation
Procedure: as §8, §9, §10, §11

FBXW7 = FBXW7 expression by Protein Simple (Simple Western) in TNBC cell lines after paclitaxel; conditions: HCC70, MDA-MB-468, HCC1806; paclitaxel 1 μM for 4 hours, overnight incubation
From the text: Simple Western immunoassays take place in a capillary. Samples and reagents are loaded into an assay plate and placed in a Protein Simple Instrument. Cell lysates are loaded into the capillary automatically and separated by size as they migrate through a stacking and separation matrix. The separated proteins are then immobilized to the capillary wall via a proprietary, photoactivated capture chemistry. Target proteins are identified using a primary antibody and immunoprobed using an HRP-conjugated secondary antibody and chemiluminescent substrate. The resulting chemiluminescent signal is detected and quantitated.
Lysates were prepared, diluted to 0.5 ug/ml in 1× lysis buffer. Simple Western platform is run on a 384-well plate.
Markers, internal ladders and DTT are provided by Simple Western in lyophilized forms. Reagents are resuspended as protocol describes. 20 uL of water is added to the markers. 40 ul of water is added to DTT, 20 ul of 10× sample buffer and 20 ul of DTT is mixed and called Z buffer. Markers are loaded in 1 A. 5 ul of lysate was added to 1.7 ml Eppendorf tube. 1.2 ul of Z reagent was added to each sample. The samples were heated at 100 C for 5 minutes, allowed to cool than spun in a microfuge for 30 seconds. Samples are loaded in wells A2-12. […] The resulting chemiluminescent signal is detected and quantitated.

[2] = Homo sapiens, read-out: Percent Inhibition
[3] = AU565 cell line, compound A × listed agent, 72-hour in vitro proliferation assay
[4] = BT-20 cell line, compound A × listed agent, 72-hour in vitro proliferation assay
[5] = BT-549 cell line, compound A × listed agent, 72-hour in vitro proliferation assay
[6] = DU-4475 cell line, compound A × listed agent, 72-hour in vitro proliferation assay
[7] = BT-474 cell line, compound A × listed agent, 72-hour in vitro proliferation assay
[8] = KPL-1 cell line, Compound A × named agent, 72-hour proliferation
[9] = MCF7, combination with compound A, 72-hour proliferation
[10] = MDA-MB-175-VII, combination with compound A, 72-hour proliferation
[11] = MDA-MB-231, combination with compound A, 72-hour proliferation
[12] = MDA-MB-361, combination with compound A, 72-hour proliferation
[13] = MDA-MB-436, combination with compound A, 72-hour proliferation
[14] = MDA-MB-453, combination with compound A, 72-hour proliferation
[15] = MDA-MB-468, combination with compound A, 72-hour proliferation
[16] = SK-BR-3 cell line, combination Compound A × listed agent, 72-hour proliferation
[17] = SUM159PT cell line, combination Compound A × listed agent, 72-hour proliferation
[18] = T47D cell line, combination Compound A × listed agent, 72-hour proliferation
[19] = ZR-75-1 cell line, combination Compound A × listed agent, 72-hour proliferation
[20] = ZR-75-30 cell line, combination Compound A × listed agent, 72-hour proliferation

COc1nn(C)cc1C(=O)N[S@@]1(=O)=NC(=O)c2ccc3c(c2)N(C[C@@H]2CC[C@H]2[C@@H](OC)CCC[C@H](C)C1)C[C@@]1(CCCc2cc(Cl)ccc21)CO3 [Compound A]
Synergy Results (95% CI) (HCC1806; Compound A 0.004 μM): 0.0 | Synergy Results (95% CI) (HCC1806; Compound A 1.000 μM): 0.0 | Synergy Results (95% CI) (HCC1806; Compound A 3.000 μM): 0.0 | Synergy Results (95% CI) (HCC1806; Compound A […]): 0.0 | inhibition at 0.004 µM (HCC1806; [2]): 0.7% | inhibition at 1 µM (HCC1806; [2]): 8.6% | inhibition at 3 µM (HCC1806; [2]): 17.9% | Percent Inhibition (HCC1187 (TNBC)): 99.2%

N.N.[Cl][Pt][Cl] [Cisplatin]
Best CI Level [1, 3]: 35 | Best CI Level [1, 4]: 65 | Best CI Level [1, 5]: 160 | Best CI Level ([1]; CAL-120 cell line, compound A × listed agent, 72-hour in vitro proliferation assay): 35 | Best CI Level ([1]; CAL-148 cell line, compound A × listed agent, 72-hour in vitro proliferation assay): 140 | Best CI Level [1, 6]: 40 | Best CI Level ([1]; HCC1143 cell line, compound A × listed agent, 72-hour in vitro proliferation assay): 55

CC(=O)O[C@H]1C(=O)[C@@]2(C)[C@H]([C@H](OC(=O)c3ccccc3)[C@]3(O)C[C@H](OC(=O)[C@H](O)[C@@H](NC(=O)c4ccccc4)c4ccccc4)C(C)=C1C3(C)C)[C@]1(OC(C)=O)CO[C@@H]1C[C@@H]2O [Paclitaxel]
inhibition at 0.0005 µM (MDA-MB-468): 1.1% | inhibition at 1 µM (MDA-MB-468): 65.1% | inhibition at 3 µM (MDA-MB-468): 70.5% | inhibition at 0.0005 µM (HCC70): -2.3% | inhibition at 1 µM (HCC70): 53.3% | inhibition at 3 µM (HCC70): 61.4% | protein levels of MCL1-BIM dimers vs vehicle control (in words) (MCL1-BIM Dimer): Decreases; also recorded: reduced | MCL1 protein levels vs vehicle control (in words) (MCL1): Decreases; also recorded: reduced | protein levels of MCL1-BAK dimers vs vehicle control (in words) (MCL1-BAK Dimer): Decreases; also recorded: reduced | FBXW7 protein levels vs vehicle control (in words) (FBXW7): Increases; also recorded: elevated

CC(=O)O[C@@]12CO[C@@H]1C[C@H](O)[C@@]1(C)C(=O)[C@H](O)C3=C(C)[C@@H](OC(=O)[C@H](O)[C@@H](NC(=O)OC(C)(C)C)c4ccccc4)C[C@@](O)([C@@H](OC(=O)c4ccccc4)[C@H]21)C3(C)C [Docetaxel]
Best CI Level ([1]; 72 h): 170

CCOc1cc2ncc(C#N)c(Nc3ccc(OCc4ccccn4)c(Cl)c3)c2cc1NC(=O)/C=C/CN(C)C [Neratinib]
Bliss Volume [1, 7]: 28.98 | HSA volume [1, 7]: 20.36 | Loewe Volume [1, 7]: 18.83 | Synergy Score [1, 7]: 39.01 | Best CI [1, 5]: 0.31 | Bliss Volume [1, 5]: 17.92 | HSA volume [1, 5]: 13.17 | Loewe Volume [1, 5]: 13.98 | Synergy Score [1, 5]: 25.15 | Best CI [1, 8]: 0.55 | Bliss Volume [1, 8]: 9.37 | HSA volume [1, 8]: 2.11 | Loewe Volume [1, 8]: 2.47 | Synergy Score [1, 8]: 9.97 | Best CI [1, 9]: 0.44 | Bliss Volume [1, 9]: 20.28 | HSA volume [1, 9]: 8.47 | Loewe Volume [1, 9]: 8.60 | Best CI [1, 10]: 0.64 | Bliss Volume [1, 10]: 18.28 | HSA volume [1, 10]: 8.80 | Loewe Volume [1, 10]: 7.95 | Synergy Score [1, 10]: 11.07 | Bliss Volume [1, 11]: 6.82 | HSA volume [1, 11]: 2.87 | Loewe Volume [1, 11]: 5.05 | Synergy Score [1, 11]: 4.59 | Bliss Volume [1, 12]: 8.05 | HSA volume [1, 12]: 9.22 | Loewe Volume [1, 12]: 8.69 | Synergy Score [1, 12]: 10.96 | Best CI [1, 13]: 0.26 | Bliss Volume [1, 13]: 5.24 | HSA volume [1, 13]: −0.69 | Loewe Volume [1, 13]: 0.79 | Synergy Score [1, 13]: 4.11 | Best CI [1, 14]: 0.35 | HSA volume [1, 14]: 10.24 | Loewe Volume [1, 14]: 8.51 | Synergy Score [1, 14]: 16.63 | Bliss Volume [1, 15]: 34.71 | Loewe Volume [1, 15]: 9.11 | Synergy Score [1, 15]: 19.05 | Best CI [1, 16]: 0.12 | Bliss Volume [1, 16]: 28.46 | HSA volume [1, 16]: 11.39 | Synergy Score [1, 16]: 22.77 | Best CI [1, 17]: 0.17 | Bliss Volume [1, 17]: 15.93 | HSA volume [1, 17]: 11.51 | Loewe Volume [1, 17]: 12.90 | Synergy Score [1, 17]: 22.98 | Bliss Volume [1, 18]: 7.67 | HSA volume [1, 18]: 2.55 | Loewe Volume [1, 18]: 5.95 | Synergy Score [1, 18]: 11.73 | Best CI [1, 19]: 0.86 | Bliss Volume [1, 19]: 13.55 | HSA volume [1, 19]: 6.49 | Loewe Volume [1, 19]: 7.51 | Synergy Score [1, 19]: 10.39 | Best CI [1, 20]: 0.41 | Bliss Volume [1, 20]: 32.84 | HSA volume [1, 20]: 16.20 | Loewe Volume [1, 20]: 14.61 | Synergy Score [1, 20]: 30.49

N.N.O=C([O-])C1(C(=O)[O-])CCC1.[Pt+2] [Carboplatin]
Best CI Level [1, 3]: 40 | Best CI Level [1, 4]: 170 | Best CI Level ([1]; CAL-51 cell line, compound A × listed agent, 72-hour in vitro proliferation assay): 165 | Best CI Level ([1]; CAL-85-1 cell line, compound A × listed agent, 72-hour in vitro proliferation assay): 110 | Best CI Level ([1]; CAMA-1 cell line, compound A × listed agent, 72-hour in vitro proliferation assay): 180 | Best CI Level [1, 6]: 180 | Best CI Level ([1]; EVSA-T cell line, compound A × listed agent, 72-hour in vitro proliferation assay): 180
